# According to US20230203029A1 (priority 2020, published 2023):
# Key:
# [1] = molecular target: T1, Ba/F3 Pro B-cell line expressing TEL-human Tyro3 fusion domain (Homo sapiens, UniProt Q06418); format: cell-based; settings: cell survival, 48 h, CellTiter-Glo
# T1 sequence (Q06418 518-790 limits assumed): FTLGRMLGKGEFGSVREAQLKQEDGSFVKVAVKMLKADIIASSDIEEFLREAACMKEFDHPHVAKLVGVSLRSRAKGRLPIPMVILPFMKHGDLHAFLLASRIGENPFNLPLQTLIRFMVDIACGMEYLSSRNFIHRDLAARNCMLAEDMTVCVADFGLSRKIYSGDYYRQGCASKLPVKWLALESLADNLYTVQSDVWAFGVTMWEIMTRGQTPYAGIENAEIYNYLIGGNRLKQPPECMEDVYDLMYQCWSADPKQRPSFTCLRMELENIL
# Experimental: (§1) Assay 5—Ba/F3 Cell Survival Assays.
# (§2) The inhibitory potencies of compounds were assessed in a Ba/F3 cell survival assay, using the Ba/F3 Pro B-cell line, recombinantly expressing a BCR-human AXL kinase domain fusion protein (pACD320/AXL, Advanced Cellular Dynamics Inc), TEL-human MERTK fusion domain (pACD1000/MERTK, Advanced Cellular Dynamics Inc), TEL-human Tyro3 fusion domain (pACD1000/TYRO3, Advanced Cellular Dynamics Inc), or control TEL-none (ACD320, Advanced Cellular Dynamics Inc) BRC-none constructs (ACD1000, Advanced Cellular Dynamics Inc). 10 ng/mL recombinant murine IL3 (R&D, 403-ML-010) was included in the media when propagating negative control TEL-none or BCR-none lines only. Cells were maintained in RMPI 1640 (Corning 15-040-CV) culture media containing 10% heat inactivated semi-synthetic FBS (RMBIO FGR-BBT), 2 mM L-Glutamine (Sigma, G7513), 100 IU/mL Penicillin-10 mg/mL Streptomycin (Sigma, P4333), and 500 ng/mL Puromycin (Sigma, P8833). Experiments were performed in 50 μl growth media, including the test compounds of interest, and dispensing 5000 cells/well in logarithmic-phase growth into a 384 well white Optiplate (Perkin Elmer 6007299). […] The final assay DMSO concentration was 0.25%. Compound incubations were conducted for 48 h at 37° C./5% CO2, after which cell plate was equilibrated at room temperature for 20 minutes prior to assessing viability. 15 μl of Promega CellTiter-Glo reagent (G7572) was added to each well for 2 min on an orbital shaker to induce cell lysis.
# (§3) The plate was then equilibrated for 5 min at room temperature and luminescence read on a BMG Pherastar FSX using the LUM plus optic module. Data were normalised to measurements in the absence of competing compound (0% inhibition). Competition curves were then fit to a 4 parameter logistic equation including a variable slope factor to determine the IC50 (compound concentration causing a half-maximal inhibition of cell survival).
# [2] = molecular target: T2, Ba/F3 Pro B-cell line expressing TEL-human MERTK fusion domain (Homo sapiens, UniProt Q12866); format: cell-based; settings: cell survival, 48 h, CellTiter-Glo; read-out: TEL-MERTK Ba/F3 IC50
# T2 sequence (Q12866 587-858 limits assumed): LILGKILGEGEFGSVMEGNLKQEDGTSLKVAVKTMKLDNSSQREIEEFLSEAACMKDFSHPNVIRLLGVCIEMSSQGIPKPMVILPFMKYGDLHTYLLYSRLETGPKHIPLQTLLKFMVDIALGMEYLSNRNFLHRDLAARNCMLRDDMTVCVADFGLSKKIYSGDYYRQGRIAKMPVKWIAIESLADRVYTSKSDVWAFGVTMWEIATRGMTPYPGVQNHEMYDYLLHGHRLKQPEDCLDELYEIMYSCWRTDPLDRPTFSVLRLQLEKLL
# Experimental: as §1
# as §2, with “only.” for “only. Cells were maintained in RMPI 1640 (Corning 15-040-CV) culture media containing 10% heat inactivated semi-synthetic FBS (RMBIO FGR-BBT), 2 mM L-Glutamine (Sigma, G7513), 100 IU/mL Penicillin-10 mg/mL Streptomycin (Sigma, P4333), and 500 ng/mL Puromycin (Sigma, P8833). Experiments were performed in 50 μl growth media, including the test compounds of interest, and dispensing 5000 cells/well in logarithmic-phase growth into a 384 well white Optiplate (Perkin Elmer 6007299).”
# as §3, with “Data were normalised to measurements in the absence of competing compound (0% inhibition).” left out
# [3] = molecular target: T3, Ba/F3 Pro B-cell line expressing BCR-human AXL kinase domain fusion protein (Homo sapiens, UniProt P30530); assay: Assay 5 Ba/F3 cell survival assay, BCR-Axl; format: cell-based; settings: read-out: BCR-Axl Ba/F3 IC50, 48 h, CellTiter-Glo
# T3 construct: P11274 (Breakpoint cluster region protein)
# T3 sequence (P30530 536-807 limits assumed): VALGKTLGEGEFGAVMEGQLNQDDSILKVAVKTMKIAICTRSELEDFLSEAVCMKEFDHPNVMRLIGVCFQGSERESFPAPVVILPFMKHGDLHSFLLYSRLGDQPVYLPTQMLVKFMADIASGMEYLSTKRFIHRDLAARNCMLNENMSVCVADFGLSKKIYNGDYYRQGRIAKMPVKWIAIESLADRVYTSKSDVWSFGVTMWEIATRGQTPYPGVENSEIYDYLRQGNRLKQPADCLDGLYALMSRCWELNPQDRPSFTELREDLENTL
# Experimental: as §1
# as §2, with “only.” for “only. Cells were maintained in RMPI 1640 (Corning 15-040-CV) culture media containing 10% heat inactivated semi-synthetic FBS (RMBIO FGR-BBT), 2 mM L-Glutamine (Sigma, G7513), 100 IU/mL Penicillin-10 mg/mL Streptomycin (Sigma, P4333), and 500 ng/mL Puromycin (Sigma, P8833). Experiments were performed in 50 μl growth media, including the test compounds of interest, and dispensing 5000 cells/well in logarithmic-phase growth into a 384 well white Optiplate (Perkin Elmer 6007299).”
# as §3, with “Data were normalised to measurements in the absence of competing compound (0% inhibition).” left out
# [4] = molecular target: T4, human AXL cytoplasmic domain (Homo sapiens, UniProt P30530); assay: Assay 1b AXL HTRF KinEASE-TK assay; format: biochemical
# T4 construct: human AXL cytoplasmic domain (Thermo Fisher A31515); purchased Thermo Fisher A31515
# T4 sequence (P30530 473-894 limits assumed): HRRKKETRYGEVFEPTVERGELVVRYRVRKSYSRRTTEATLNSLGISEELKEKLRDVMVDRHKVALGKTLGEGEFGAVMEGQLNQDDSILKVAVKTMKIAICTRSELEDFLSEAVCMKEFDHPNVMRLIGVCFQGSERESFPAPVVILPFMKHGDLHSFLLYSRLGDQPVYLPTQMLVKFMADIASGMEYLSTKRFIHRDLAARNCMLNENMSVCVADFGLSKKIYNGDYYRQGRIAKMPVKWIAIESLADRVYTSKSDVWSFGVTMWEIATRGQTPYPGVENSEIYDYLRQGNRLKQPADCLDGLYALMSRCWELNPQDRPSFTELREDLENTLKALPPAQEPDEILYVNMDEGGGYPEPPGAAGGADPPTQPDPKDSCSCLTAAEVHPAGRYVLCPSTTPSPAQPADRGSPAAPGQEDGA
# Experimental: Assay 1b—AXL HTRF KinEASE-TK Assay
# Compound inhibition of human AXL cytoplasmic domain (Thermo Fisher A31515) enzymatic activity was tested via the HTRF KinEASE-tyrosine kinase (TK) kit (Cisbio 62TK0PEC). Experiments were performed in 20 μl enzymatic buffer (Cisbio 62EZBFDD) supplemented with 5 mM MgCl2, 1 mM MnCl2, 1 mM DTT, 50 nM SEB (Cisbio, 61SEBALB), with 5 nM of AXL and the test compounds of interest. […] The enzymatic reaction was carried out for 30 min at room temperature. 10 μL TK Antibody-Cryptate/Streptavidin-XL665 (Cisbio 610SAXLG) was then added for 60 min, including EDTA containing detection buffer (Cisbio 62SDBRDF) to stop the reaction. The plate was read on a BMG Pherastar FSX using a HTRF 337/620/665 optical module to excite the terbium donor at 337 nm, and record donor emission at 620 nm and acceptor fluorophore emission at 665 nm. From this the FRET ratio (acceptor 665 nm/donor 620 nm) for each data point was calculated. […] Competition curves were then fit to a 4 parameter logistic equation including a variable slope factor to determine the IC50 (compound concentration that inhibits 50% of AXL activity).
# [5] = molecular target: T5, human MERTK cytoplasmic domain (Homo sapiens, UniProt Q12866); assay: biochemical; settings: 30 uM ATP; read-out: Assay 1a Mer IC50 30 uM ATP
# T5 construct: human MERTK cytoplasmic domain (Carna Biosciences 08-108); purchased Carna Biosciences 08-108
# T5 sequence (Q12866 527-999): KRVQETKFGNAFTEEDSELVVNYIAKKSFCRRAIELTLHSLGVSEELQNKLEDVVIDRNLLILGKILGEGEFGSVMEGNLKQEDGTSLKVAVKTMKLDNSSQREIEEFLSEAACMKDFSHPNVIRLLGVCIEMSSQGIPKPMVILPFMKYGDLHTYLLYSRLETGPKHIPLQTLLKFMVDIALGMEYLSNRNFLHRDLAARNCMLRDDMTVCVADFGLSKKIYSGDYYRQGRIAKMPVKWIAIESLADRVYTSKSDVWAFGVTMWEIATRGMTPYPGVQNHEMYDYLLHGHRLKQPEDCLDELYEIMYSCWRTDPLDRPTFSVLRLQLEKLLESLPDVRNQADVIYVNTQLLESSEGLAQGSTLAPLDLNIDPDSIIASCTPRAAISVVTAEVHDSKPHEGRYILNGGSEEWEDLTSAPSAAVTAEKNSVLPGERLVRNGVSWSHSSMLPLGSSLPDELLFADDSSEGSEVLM
# Experimental: Assay 1a—MERTK HTRF KinEASE-TK Assay
# The enzymatic reaction was carried out for 30 min at room temperature. 10 μL TK Antibody-Cryptate/Streptavidin-XL665 (Cisbio 610SAXLG) was then added for 60 min, including EDTA containing detection buffer (Cisbio 62SDBRDF) to stop the reaction.
SMILES,IC50 [1],IC50 [2],IC50 [3],IC50 [4],IC50 [5]
"CC(C)n1cc(C(=O)Nc2ccc(Oc3ccnc4cnc(C(=O)NC5CCN(C)CC5)cc34)cc2)c(=O)n(-c2ccc(F)cn2)c1=O [Example 9, 4-[4-[[3-(5-Fluoro-2-pyridyl)-1-isopropyl-2,4-dioxo-pyrimidine-5-carbonyl]amino]phenoxy]-N-(1-methyl-4-piperidyl)-1,7-naphthyridine-6-carboxamide]",252 nM,85 nM,6 nM,11 nM,14 nM
"CC(C)n1cc(C(=O)Nc2ccc(Oc3ccnc4cnc(C(=O)NC5CCN(C)CC5)cc34)cc2)c(=O)n(-c2ccc(F)cc2)c1=O [Example 8.2, 4-[4-[[3-(4-fluorophenyl)-1-isopropyl-2,4-dioxo-pyrimidine-5-carbonyl]amino]phenoxy]-N-(1-methyl-4-piperidyl)-1,7-naphthyridine-6-carboxamide]",120 nM,30 nM,3 nM,10 nM,10 nM
"CC(C)n1cc(C(=O)Nc2ccc(Oc3ccnc4cnc(N5CCN(C6COC6)CC5)cc34)cn2)c(=O)c(-c2ccc(F)cc2)c1 [Example 20.2, 5-(4-fluorophenyl)-1-isopropyl-N-[5-[[6-[4-(oxetan-3-yl)piperazin-1-yl]-1,7-naphthyridin-4-yl]oxy]-2-pyridyl]-4-oxo-pyridine-3-carboxamide]",220 nM,5 nM,2 nM,7 nM,1 nM
"O=C(Nc1ccc(Oc2ccnc3cnc(N4CCNCC4)cc23)cc1)c1cccc(-c2ccc(F)cc2)[n+]1[O-] [Example 12.6, 6-(4-fluorophenyl)-1-oxido-N-[4-[(6-piperazin-1-yl-1,7-naphthyridin-4-yl)oxy]phenyl]pyridin-1-ium-2-carboxamide]",110 nM,16 nM,6 nM,31 nM,3 nM
"O=C(Nc1ccc(Oc2ccnc3cnc(N4CCNCC4)cc23)cn1)c1cccn(-c2ccc(F)cc2)c1=O [Example 10, 1-(4-fluorophenyl)-2-oxo-N-[5-[(6-piperazin-1-yl-1,7-naphthyridin-4-yl)oxy]-2-pyridyl]pyridine-3-carboxamide]",148 nM,24 nM,28 nM,29 nM,5 nM
"CC(C)n1cc(C(=O)Nc2ccc(Oc3ccnc4cnc(C(=O)N[C@H]5CCN(C)C5)cc34)cn2)c(=O)n(-c2ccc(F)cc2)c1=O [Example 27.4, 4-[[6-[[3-(4-fluorophenyl)-1-isopropyl-2,4-dioxo-pyrimidine-5-carbonyl]amino]-3-pyridyl]oxy]-N-[(3S)-1-methylpyrrolidin-3-yl]-1,7-naphthyridine-6-carboxamide]",377 nM,44 nM,14 nM,,14 nM
"O=C(Nc1ccc(Oc2ccnc3cnc(C4CCN(C5COC5)CC4)cc23)cn1)c1cccn(-c2ccc(F)cc2)c1=O [Example 16.3, 1-(4-fluorophenyl)-N-[5-[[6-[1-(oxetan-3-yl)-4-piperidyl]-1,7-naphthyridin-4-yl]oxy]-2-pyridyl]-2-oxo-pyridine-3-carboxamide]",271 nM,14 nM,,3 nM,1 nM
"CN1CCN(c2cc3c(Oc4ccc(NC(=O)c5cccn(-c6ccc(F)cc6)c5=O)nc4)ccnc3cn2)CC1 [Example 10.1, 1-(4-fluorophenyl)-N-[5-[[6-(4-methylpiperazin-1-yl)-1,7-naphthyridin-4-yl]oxy]-2-pyridyl]-2-oxo-pyridine-3-carboxamide]",119 nM,16 nM,,14 nM,6 nM
"CN1CCC(C(=O)Nc2cc3c(Oc4ccc(NC(=O)c5cccn(-c6ccc(F)cc6)c5=O)nc4)ccnc3cn2)C1 (centres unmarked) [Example 18, 1-(4-Fluorophenyl)-N-[5-[[6-[(1-methylpyrrolidine-3-carbonyl)amino]-1,7-naphthyridin-4-yl]oxy]-2-pyridyl]-2-oxo-pyridine-3-carboxamide]",165 nM,3 nM,,34 nM,2 nM
